Laboratory results reported in paper PMC8725163 (Acta Crystallographica. Section D, Structural Biology, 2022).

Biological target: T1, BpsDsbA (oxidized) (Burkholderia pseudomallei, UniProt Q63Y08)
T1 construct: gene dsbA
Assay: biochemical

T1 sequence (Q63Y08 16-212 limits assumed): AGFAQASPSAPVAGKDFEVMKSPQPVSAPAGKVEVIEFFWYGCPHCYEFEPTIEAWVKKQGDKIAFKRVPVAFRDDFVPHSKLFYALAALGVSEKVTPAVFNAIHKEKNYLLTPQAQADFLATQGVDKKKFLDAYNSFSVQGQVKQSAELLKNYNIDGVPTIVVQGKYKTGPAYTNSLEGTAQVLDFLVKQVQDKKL

Question: COc1ccc(S(=O)(=O)Nc2ccccc2)cc1 [compound 2, 4-methoxy-N-phenylbenzenesulfonamide] was tested. Which Kd did it give?
Answer: The Kd was greater than 2000 µM.
